This is an account of results in patent publication EP2327766B1, “Nitrilases” (BASF Enzymes LLC, priority 2001, dated 2003).

One data set deals with nitrilase SEQ ID NOS:385, 386 (nitrilase I), obtained from an environmental sample. The data set can be described thus: High throughput nitrilase activity assay, turnover frequency on mandelonitrile derivatives. It is filed as biochemical, Unknown (obtained from an environmental sample). The conditions noted are these: 25 mM substrate, 0.12 mg/mL enzyme, 10% MeOH (v/v) 0.1 M phosphate buffer, 37°C, pH 8; 5 min timepoint. Here is the method:
The nitrilase library was screened for activity and enantioselectivity in the hydrolysis of mandelonitrile (3a, Ar = phenyl) to mandelic acid. […] Under standard conditions using 25 mM 3a and 0.12 mg/mL enzyme in 10% MeOH (v/v) 0.1 M phosphate buffer at 37°C and pH 8, (R)-mandelic acid was formed quantitatively within 10 min and with 98% ee. To confirm synthetic utility, the reaction was performed using 1.0 g 3a (50 mM) and 9 mg nitrilase (0.06 mg/mL nitrilase I); after 3 h (R)-mandelic acid was isolated in high yield (0.93 g, 86%) and again with 98% ee. [drawing 19] Table 13. SEQ ID NOS:385, 386-catalyzed production of mandelic acid derivatives and analogues 4a
Activity assays were conducted using 25 mM (-3 mg/mL) substrate, 0.1 mg/mL nitrilase in 0.25 mL of assay solution. Assay solutions consisted of 0-10% (v/v) MeOH in 0.1 M sodium phosphate buffer solution at pH 7 to 9 and temperatures 37°C or 22°C. Specific activities were measured at 5 min transformation time point, unless otherwise noted, and are expressed in units µmol mg^-1 min^-1. Enantiomeric excess and conversion rates were determined by high throughput HPLC analysis comparing enzyme product concentration to standard curves of racemic acid products. Analytical conditions for the products are tabulated below.
Take `N#CC(O)c1cccnc1` (stereo not shown) [3-pyridyl cyanohydrin]: the “TOF (turnover frequency)” value is listed as 18.6 mol product/mol catalyst/sec.
Consider `N#CC(O)c1cccc(Br)c1` (stereo not shown) [3-bromomandelonitrile], for which the “TOF (turnover frequency)” value is 1.7 mol product/mol catalyst/sec.
Still for that read-out and setting: to `N#CC(O)c1ccccc1Br` (stereo not shown) [2-bromomandelonitrile] belongs 5.6 mol product/mol catalyst/sec; to `N#CC(O)c1cccc(Cl)c1` (stereo not shown) [3-chloromandelonitrile], 3.4 mol product/mol catalyst/sec; to `N#CC(O)c1ccccc1Cl` (stereo not shown) [2-chloro mandelonitrile], 1.7 mol product/mol catalyst/sec.
Regarding `N#CC(O)c1ccsc1` (stereo not shown) [3-thienyl cyanohydrin], the “TOF (turnover frequency)” value is 16.8 mol product/mol catalyst/sec.
With `N#CC(O)c1ccccc1` (stereo not shown) [mandelonitrile], the “TOF (turnover frequency)” value is 28 mol product/mol catalyst/sec.
As to `Cc1ccccc1C(O)C#N` (stereo not shown) [2-methylmandelonitrile], the “TOF (turnover frequency)” value is given as 5.1 mol product/mol catalyst/sec.
Take `N#CC(O)c1ccc(F)cc1` (stereo not shown) [4-fluoromandelonitrile]: the “TOF (turnover frequency)” value was 11.8 mol product/mol catalyst/sec.

The same data set, now with this note: entries 8-9: pH 9 and 5 mM substrate concentration; otherwise standard conditions.
For `N#CC(O)c1cccc2ccccc12` (stereo not shown) [1-naphthyl cyanohydrin], the “TOF (turnover frequency)” value is on record as 2.8 mol product/mol catalyst/sec.
With `N#CC(O)c1ccc2ccccc2c1` (stereo not shown) [2-naphthyl cyanohydrin], the “TOF (turnover frequency)” value is reported as 2.8 mol product/mol catalyst/sec.

In the next data set the test system is nitrilase SEQ ID NOS:103, 104. The experiment in a line: Effect of starting material and product on nitrilase activity (phenylacetaldehyde cyanohydrin hydrolysis). It is filed as biochemical, Unknown (obtained from an environmental sample). The conditions noted are these: up to levels of 5 mM. The procedure: The effect of the process components on the activity of the enzymes was established by addition of the individual components to the enzymatic reaction. These components included the starting materials for the nitrile synthesis, aldehyde, cyanide and ammonium, as well as triethylamine, which is added in catalytic amounts to the nitrile synthesis reaction. The concentrations of the reactants were selected with possible process conditions in mind and were adapted to the levels of reactants used in the enzyme assays. In some cases, the solubility of the aldehydes and products was relatively low; in these cases, the highest level of solubility was added to the reactions as the highest level and 10% of this level as the lower value.
The enzymatic reactions were carried out under standard conditions, with addition of one or more of the following components: benzaldehyde, phenylglycine, phenylacetaldehyde, phenyllactic acid, 2-chlorobenzaldehyde, 2-chloromandelic acid, 5-hydroxypentanal, (S)-2-amino-6-hydroxy hexanoic acid, 4-methylleucine, KCN, Triethylamine, NH4Cl. Control reactions were performed under standard conditions, with no additive. The samples were analyzed by non-chiral HPLC.
SEQ ID NOS: 103, 104 was identified as a highly enantioselective nitrilase for the production of (S)- phenyllactic acid. […] The scaled-up enzymatic reaction with an enantiomeric excess (ee) of 95%. […]
As for `O=CCc1ccccc1` [phenylacetaldehyde], the “effect on the enzyme activity” value is reported as “no effect”.

The subject of another data set is nitrilase expressing subclones SEQ ID NOS:101, 102, SEQ ID NOS:187, 188, SEQ ID NOS:29, 30. The experiment in a line: Growth of nitrilase expressing subclones in the presence of HPA nitrile. The data set is classed as cell-based. The conditions noted are these: cells grown at pH 7. Here is the method:
In preparation for assay automation, nitrilase expressing cells were added into microtiter plate containing M9 0.2% glucose,0.25 mM IPTG media by florescence activated cell sorting (FACS). Three nitrilase expressing subclones, and the empty vector control were evaluated: SEQ ID NOS:101, 102, SEQ ID NOS:187, 188, SEQ ID NOS:29, 30 and the empty vector. […] Thus colony picking is currently being evaluated as an alternative method to add cells into microtiter plates. The evaporative loss from an uncovered 1536-well microtiter plate is approximately 30% per day in the robot incubator (incubator conditions: 37°C at 85% relative humidity (RH)). Incubation in the 95% RH incubator reduced evaporative loss to 1% per day.
The ability of the three subclones to grow in the presence of up to 3.5 mM of nitrile was established using HPA nitrile. Growth rates were only slightly retarded (less that 30%). […] Only S was evaluated as the enzymes are S-selective. The reaction plate was read at 10 minute intervals, with 40 minutes showing the best linearity.
As to `CC(C)(CO)C(N)C#N` (stereo not shown) [HPA, Hydroxypivaldehyde aminonitrile], the “concentration above which cell growth is significantly inhibited” value is “above 5 mM”.

The same data set, now with this note: cells grown at pH 8.
As to `CC(C)(CO)C(N)C#N` (stereo not shown) [HPA, Hydroxypivaldehyde aminonitrile], the “concentration above which growth was inhibited” value was “above 0.1 mM”.

The same data set, now with this note: in the presence of up to 3.5 mM of nitrile.
As to `CC(C)(CO)C(N)C#N` (stereo not shown) [HPA, Hydroxypivaldehyde aminonitrile], the growth rates retarded was below 30%.

A further data set relates to Nitrilase II, SEQ ID NOS:103, 104, obtained from an environmental sample. The data set can be described thus: High throughput nitrilase activity assay, turnover frequency on aryl acetaldehyde cyanohydrins. The data set is classed as biochemical, Unknown (obtained from an environmental sample). The conditions noted are these: conditions as in Table 13 (25 mM substrate, 10% MeOH, 37°C, pH 8), except 0.016 mg/mL nitrilase. The source says: We next examined the preparation of aryllactic acid derivatives 6 through hydrolysis of the corresponding cyanohydrins 5. Phenyllactic acid and derivatives serve as versatile building blocks for the preparation of numerous biologically active compounds. (Coppola, G.M.; Schuster, H.F. Chiral α-Hydroxy Acids in Enantioselective Synthesis; Wiley-VCH: Weinheim, Germany: 1997.) Upon screening our nitrilase library against the parent cyanohydrin 5a (Ar= phenyl), we found several enzymes that provided 6a with high enantiomeric excess. One enzyme, SEQ ID NOS: 103, 104, was further characterized. […] The highest [drawing 20] enantioselectivity previously reported for biocatalytic conversion of 5 to 6 was 75% ee achieved through a whole cell transformation using a Pseudomonas strain. (Hashimoto, Y.; Kobayashi, E.; Endo, T.; Nishiyama, M.; Horinouchi, S. Biosci. Biotech. Biochem. 1996, 60, 1279.) Table 14. Nitrilase II-catalyzed production of aryllactic acid derivatives and analogues 6a
Assay solutions consisted of 0-10% (v/v) MeOH in 0.1 M sodium phosphate buffer solution at pH 7 to 9 and temperatures 37°C or 22°C. Specific activities were measured at 5 min transformation time point, unless otherwise noted, and are expressed in units µmol mg^-1 min^-1. Enantiomeric excess and conversion rates were determined by high throughput HPLC analysis comparing enzyme product concentration to standard curves of racemic acid products. Analytical conditions for the products are tabulated below.
With `N#CC(O)Cc1cccs1` (stereo not shown) [2-thienyl acetaldehyde cyanohydrin], the “TOF (turnover frequency)” value is reported as 2.1 mol product/mol catalyst/sec.
Regarding `N#CC(O)Cc1ccccc1` (stereo not shown) [phenyl acetaldehyde cyanohydrin], the “TOF (turnover frequency)” value is listed as 16 mol product/mol catalyst/sec.
On to 3-pyridyl acetaldehyde cyanohydrin, for which the “TOF (turnover frequency)” value is 7.2 mol product/mol catalyst/sec.
Take `Cc1cccc(CC(O)C#N)c1` (stereo not shown) [3-methylphenyl acetaldehyde cyanohydrin]: the “TOF (turnover frequency)” value is recorded as 13 mol product/mol catalyst/sec.
Still for that read-out and setting: the value for `N#CC(O)Cc1ccccc1F` (stereo not shown) [2-fluorophenyl acetaldehyde cyanohydrin] was 97 mol product/mol catalyst/sec.
For the molecule `N#CC(O)Cc1cccc2ccccc12` (stereo not shown) [1-napthyl acetaldehyde cyanohydrin], the “TOF (turnover frequency)” value is recorded as 40 mol product/mol catalyst/sec.
In the case of `Cc1ccccc1CC(O)C#N` (stereo not shown) [2-methylphenyl acetaldehyde cyanohydrin], the “TOF (turnover frequency)” value is given as 100 mol product/mol catalyst/sec.
Consider `N#CC(O)Cc1ccccn1` (stereo not shown) [2-pyridyl acetaldehyde cyanohydrin], for which the “TOF (turnover frequency)” value is given as 6.6 mol product/mol catalyst/sec.
On the same count and under the same terms, the value for `N#CC(O)Cc1cccc(F)c1` (stereo not shown) [3-tluorophenyl acetaldehyde cyanohydrin] was 14 mol product/mol catalyst/sec; that for `N#CC(O)Cc1ccccc1Br` (stereo not shown) [2-bromophenyl acetaldehyde cyanohydrin] was 76 mol product/mol catalyst/sec.
Consider `N#CC(O)Cc1ccsc1` (stereo not shown) [3-thienyl acetaldehyde cyanohydrin], for which the “TOF (turnover frequency)” value is listed as 1.4 mol product/mol catalyst/sec.

The test system of the next data set is nitrilase SEQ ID NOS:385, 386, obtained from an environmental sample. The experiment in a line: Effect of reaction components on nitrilase activity (2-chloromandelonitrile hydrolysis, non-chiral HPLC). The conditions noted are these: 5 mM additive; 25 mM 2-chloromandelonitrile, 0.1 M phosphate buffer pH 8, 37°C. The data set is classed as biochemical, Unknown (obtained from an environmental sample). The source says: A vital part of an investigation into process optimization of an enzyme involves the determination of the effects of any compounds which could be present in the enzymatic reaction. For SEQ ID NOS:385, 386, these components were established as the starting material and equilibrium product of the cyanohydrin, 2-chlorobenzaldehyde; the product, 2-chloromandelic acid and the contaminant detected in the substrate, 2-chlorobenzoic acid. […] The presence of trace amounts of triethylamine was also found to be tolerable to the enzyme.
The effect of the various reaction components on the activity of SEQ ID NOS:385, 386 was assessed by addition of various levels of possible inhibitors to the enzyme reaction. […]
• (i) Activity: The effect of the process components on the activity of the enzymes was established by addition of the individual components, 2-chlorobenzaldehyde, 2-chlorobenzoic acid or 2-chloromandelic acid, to the enzymatic reaction. […] The samples were analysed by non-chiral HPLC. • (ii) Stability: The stability of the enzymes to process conditions was monitored by incubation of the enzymes in the presence of the reaction components, 2-chlorobenzaldehyde and 2-chloromandelic acid for predetermined time periods, prior to assay of the enzyme activity under standard conditions. […]
Turning to `O=C(O)c1ccccc1Cl` [2-chlorobenzoic acid], the “activity lost upon addition to the reaction” value is recorded as around 40%.
For `O=Cc1ccccc1Cl` [2-chlorobenzaldehyde], the “activity lost upon addition to the reaction” value is “Approximately 70%”.
